Assay results as given in EP3060679B1, “METHOD AND KIT FOR DETERMINING WHETHER A SUBJECT SHOWS AN IMMUNE RESPONSE” (BioNTech Diagnostics GmbH, priority 2013, dated 2015).
Like-named read-outs stand apart in the source and are kept apart here.

How the values were obtained:
HLA-B∗0702 = system: HLA-B∗0702
Text: (§1) In addition HLA-expression profiles are established from tumor biopsies that are taken from the patients 12 weeks after the last vaccination.
For further investigation new biopsies of the tumors of both patients are taken for analysis of tumor antigen expression and the establishment of a HLA expression profile using the method of the present invention.

patient's PBMCs = settings: 6 weeks after vaccination vs before treatment
Protocol: The above described method is used for monitoring an immune response in 2 melanoma patients that were treated by an immunotherapy based on a peptide vaccine consisting of the HLA-B^∗0702-restricted T cell epitope […] (aa97-111) (SEQ ID NO: 40) of the tumor-associated antigen NY-ESO 1. In order to evaluate whether or not patients would benefit from a corresponding peptide vaccination therapy, HLA genotyping is done to test for HLA-B^∗0702 and tumor biopsies are examined for high NY-ESO 1 expression.
(§2) Before the vaccination therapy is started, the method described herein above is applied to establish HLA- and TCR-specific gene expression profiles of the patient's PBMCs. Furthermore the tumor size/mass is determined by CT scan. During therapy, the patients received 1 mg of the HLA-B^∗0702-restricted peptide […] every 2 weeks for 6 doses.
as §1

tumor = system: tumor
Protocol: as §2, §1

## ATPMEAELARRSLAQ
HLA-B∗0702; patient 1, tumor biopsy 12 weeks after the last vaccination
  HLA expression profile of tumor cells: normal HLA expression profile
HLA-B∗0702; patient 2, tumor biopsy 12 weeks after the last vaccination
  expression of HLA-B∗0702 in tumor cells: completely lost
HLA-B∗0702; patients' PBMCs, all time points
  expression of isotypes of HLA class I and II: expressed at normal levels
patient's PBMCs; patient 1, PBMCs
  increased expression of the TCR-β sequence V4.1 D2 J2.1 C2: 9.6 fold
patient's PBMCs; patient 1, PBMCs, 1 mg peptide every 2 weeks for 6 doses
  increased expression of the TCR-α sequence V1.1 J23 C: 10.3 fold
patient's PBMCs; patient 2, PBMCs
  increased expression of the TCR-α sequence V1.1 J23 C: 9.3 fold
  increased expression of the TCR-β sequence V4.1 D2 J2.1 C2: 10.6 fold
tumor; both patients, along with the T cell response seen 6 weeks after vaccination
  tumor mass in the CT scan: loss of the tumor mass
tumor; patient 1, 12 weeks after vaccination
  tumor in CT scan: continuous tumor regression
tumor; patient 2, 12 weeks after vaccination
  tumor in CT scan: growing again
